Measurements as given in US12195557B2, “Optimised compounds” (AXELIA ONCOLOGY PTY LTD, priority 2017, dated 2025).
pEC50: −log10 of the molar value. Where two headings read alike, the source gives them in different places. Residues, ends and D or L forms follow the SMILES beside them. *: point of attachment. X1 = CCCCCCCCCCCCCCCC(=O)OCC(C*)OC(=O)CCCCCCCCCCCCCCC

Key:
human TLR2 [1] = target: T1, human TLR2 (Homo sapiens, UniProt O60603); test: NF-kB activation in HEKBlue-hTLR2 cell line (SEAP reporter); assay type: cell-based
T1 construct: host or cells: HEK-Blue hTLR2 (HEK293-derived) cell line
T1 sequence (O60603 21-784): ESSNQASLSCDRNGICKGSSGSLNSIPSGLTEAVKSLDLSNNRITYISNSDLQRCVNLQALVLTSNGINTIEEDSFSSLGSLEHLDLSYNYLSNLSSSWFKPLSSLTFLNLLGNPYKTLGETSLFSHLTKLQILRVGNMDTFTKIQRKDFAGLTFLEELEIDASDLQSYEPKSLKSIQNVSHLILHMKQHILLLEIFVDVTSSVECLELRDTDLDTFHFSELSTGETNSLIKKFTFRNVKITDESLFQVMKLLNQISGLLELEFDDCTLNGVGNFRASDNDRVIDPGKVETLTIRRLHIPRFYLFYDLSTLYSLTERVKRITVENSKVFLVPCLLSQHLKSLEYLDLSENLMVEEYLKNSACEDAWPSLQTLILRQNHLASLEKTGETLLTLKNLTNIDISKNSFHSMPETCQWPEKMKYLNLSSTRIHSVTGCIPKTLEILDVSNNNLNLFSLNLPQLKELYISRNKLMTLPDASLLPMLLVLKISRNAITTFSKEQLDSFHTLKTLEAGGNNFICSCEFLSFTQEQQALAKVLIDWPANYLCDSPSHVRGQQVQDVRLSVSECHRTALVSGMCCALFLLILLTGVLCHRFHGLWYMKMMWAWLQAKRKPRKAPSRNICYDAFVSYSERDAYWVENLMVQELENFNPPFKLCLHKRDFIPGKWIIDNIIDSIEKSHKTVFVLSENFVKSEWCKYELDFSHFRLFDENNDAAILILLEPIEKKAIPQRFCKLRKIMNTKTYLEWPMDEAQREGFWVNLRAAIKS
T1 sequence (Q9Y2C9 32-796 partner): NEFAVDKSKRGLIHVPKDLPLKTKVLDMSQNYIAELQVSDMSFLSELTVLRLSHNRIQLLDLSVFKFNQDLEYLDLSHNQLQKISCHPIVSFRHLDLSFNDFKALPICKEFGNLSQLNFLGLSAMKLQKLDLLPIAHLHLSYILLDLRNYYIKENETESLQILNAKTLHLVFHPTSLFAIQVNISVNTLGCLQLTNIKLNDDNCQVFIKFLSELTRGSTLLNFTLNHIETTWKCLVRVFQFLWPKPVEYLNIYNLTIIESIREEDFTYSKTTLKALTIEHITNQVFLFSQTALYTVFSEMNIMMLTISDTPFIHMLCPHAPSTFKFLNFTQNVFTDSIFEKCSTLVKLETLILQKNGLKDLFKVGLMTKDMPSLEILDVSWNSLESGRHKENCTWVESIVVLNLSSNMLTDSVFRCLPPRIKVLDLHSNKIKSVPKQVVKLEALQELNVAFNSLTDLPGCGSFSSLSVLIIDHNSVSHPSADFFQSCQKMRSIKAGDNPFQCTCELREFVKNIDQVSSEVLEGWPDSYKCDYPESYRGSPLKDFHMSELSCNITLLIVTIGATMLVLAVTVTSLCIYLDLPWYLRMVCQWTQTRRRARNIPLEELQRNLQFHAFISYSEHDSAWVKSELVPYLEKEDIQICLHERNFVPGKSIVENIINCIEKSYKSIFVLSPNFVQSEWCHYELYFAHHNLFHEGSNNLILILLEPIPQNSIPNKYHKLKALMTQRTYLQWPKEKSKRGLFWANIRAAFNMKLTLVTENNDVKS
Method: The potency of the compounds as activators of human and mouse TLR-2s was tested in an in vitro assay. The assay assesses NF-kB activation in the HEKBlue-mTLR-2 cell line. These cells have been stably transfected with mouse TLR-2 and express TLR-1 and TLR-6 endogenously at sufficient levels to allow for fully-functional TLR-1/2 and TLR-2/6 activation.
(§1) Toll-Like Receptor 2 (TLR2) stimulation is tested by assessing NF-kB activation in the HEKBlue-hTLR2 cell line. These cells have been stably transfected with human TLR2 and express TLR1 and TLR6 endogenously at a level sufficient to allow for fully-functional TLR1/2 and TLR2/6 activation. The activity of the test articles are tested on human TLR2 as potential agonists. The test articles are evaluated at seven concentrations and compared to control ligands. These steps are performed in triplicate.
as §1, with “stimulation was” for “stimulation is”, “assessing N-kB” for “assessing NF-kB”, “the HEK-Blue hTLR2” for “the HEKBlue-hTLR2”, “articles were” for “articles are”, “control ligands (see list below).” for “control ligands.”, “steps were” for “steps are”
The secreted embryonic alkaline phosphatase (SEAP) reporter is under the control of a promoter inducible by the transcription factor NF-κB. This reporter gene allows the monitoring of signaling through the TLR, based on the activation of NF-κB. In a 96-well plate (200 μL total volume) containing the appropriate cells (50,000-75,000 cells/well), 20 μL of the test article or the positive control ligand is added to the wells. The media added to the wells is designed for the detection of NF-κB induced SEAP expression. After a 20 hour incubation the optical density (OD) is read at 650 nm on a Molecular Devices SpectraMax 340PC absorbance detector.

[2] = tested on: A/Udorn/307/72 (H3N2) influenza virus; assay type: in vivo, C57BL/6 mice; settings: n=5, day 5 (Example 4)
in vitro [3] = settings: rat, plasma
[4] = dog plasma, 37° C., 4 h time course
in vitro [5] = settings: cynomolgus monkey, hepatocytes
[6] = human plasma, 37° C., 4 h time course
in vitro [7] = settings: human, hepatocytes
in vitro [8] = settings: rat, hepatocytes
in vitro [9] = settings: dog, hepatocytes
Solubility in water = assay type: physicochemical
human TLR2 [10] = target: T1, human TLR2; test: NF-κB luciferase reporter assay in HEK293T cells transfected with human TLR2 plasmid; assay type: cell-based; settings: dose range tested (12.2 pM to 3.125 pM), Example 9
Method: Comparison of the abilities of various compounds to stimulate luciferase activity in an NF-κB cell-based reporter system was determined. Compounds tested include INNA-006 (or compound (1)); INNA-013 (or compound (4)); INNA-014 (or compound (3)); INNA-015 (or compound (2)); INNA-010; INNA-011 (or compound (5)); INNA-012 (or compound (6)); and INNA-009. HEK293T cells, transiently co-transfected with a human TLR2 plasmid and a luciferase-NF-κB plasmid reporter system, were exposed to various dilutions of each compound. Successful receptor binding and subsequent signal transduction events were determined by measuring the luminescence due to luciferase activity (results shown in FIG. 11—left to right columns for each concentration are in the following order INNA-006 (or compound (1)); INNA-013 (or compound (4)); INNA-014 (or compound (3)); INNA-015 (or compound (2)); INNA-010; INNA-011 (or compound (5)); INNA-012 (or compound (6)); and INNA-009.
Comparison of the in vitro TLR2 agonistic activity of Pam3Cys-Ser-PEG3000 and INNA-006: HEK293T cells, transiently co-transfected with a human TLR2 plasmid and a luciferase-NF-κB plasmid reporter system, were exposed to various dilutions of INNA-006 or Pam3Cys-Ser-PEG3000. […]

## CCCCCCCCCCCCCCCC(=O)OCC(CSCC(N)C(=O)NC(CO)C(=O)NC(CCCCN)C(=O)NC(CCCCN)C(=O)NC(CCCCN)C(=O)NC(CCCCN)C(=O)O)OC(=O)CCCCCCCCCCCCCCC (stereo not drawn) [INNA-005, Pam2Cys—Ser—Lys—Lys—Lys—Lys, reference compound] (H-C(X1)SKKKK-OH; configuration not given here)
Human TLR2 [1]; Example 2
  TLR2 activation, potency in words: activated human TLR2
Human TLR2 [1]; agonist activity against Human TLR-2 in vitro
  pEC50: 11.43
[2]; 0.005 nmoles intranasal 1 day prior to 500 pfu Udorn challenge
  progression of influenza virus to the lungs (lung viral titre): partial inhibition
[2]; 0.1 nmoles intranasal 1 day prior to 500 pfu Udorn challenge
  progression of influenza virus to the lungs (lung viral titre): partial inhibition
[2]; 5 nmoles intranasal 1 day prior to 500 pfu Udorn challenge
  progression of influenza virus to the lungs (lung viral titre): partial inhibition

## CCCCCCCCCCCCCCCC(=O)OCC(CSC[C@H](N)C(=O)N[C@@H](CO)C(=O)NCCOCCOCCOCCOCCOCCOCCOCCOCCOCCOCCOCCOCCOCCOCCOCCOCCOCCOCCOCCOCCOCCOCCOCCOCCOCCOCCOCCOCCC(=O)NCC(N)=O)OC(=O)CCCCCCCCCCCCCCC (stereo partly drawn) [INNA-011]
In vitro [3]
  half-life: 5.9 h
[4]
  plasma half-life: could not be calculated due to insufficient degradation
In vitro [5]
  half-life at 0.5 μM: 2.88 h
  hepatocyte CLint at 0.5 μM: ≤ 2 µL/min/1e6 cells
[6]
  plasma half-life: could not be calculated due to insufficient degradation
In vitro [7]
  half-life at 0.5 μM: 5.47 h
  hepatocyte CLint at 0.5 μM: ≤ 2 µL/min/1e6 cells
In vitro [8]
  half-life at 0.5 μM: > 6.25 h
  hepatocyte CLint at 0.5 μM: ≤ 2 µL/min/1e6 cells
In vitro [9]
  half-life at 0.5 μM: 4.73 h
  hepatocyte CLint at 0.5 μM: ≤ 2 µL/min/1e6 cells

## Pam3Cys-Ser-PEG3000
Solubility in water
  solubility in water: readily soluble in water
Human TLR2 [10]
  ability to signal NF-κB compared with INNA-006: inferior to INNA-006
